Measured values taken from patent US10081609B2, “Compounds for inducing proliferation and differentiation of cells, and methods of use thereof” (The Broad Institute, Inc., priority 2013, dated 2018).

Columns and labels:
iHeps [1] = experiment: CYP450 activities of treated iHeps through isoenzyme-specific probes; type: cell-based, human
Protocol: Culture media were collected and frozen at −20° C. until analysis. Albumin content was measured through sandwich ELISA assays (MP Biomedicals, Fitzgerald, Bethyl Laboratories) using horseradish peroxidase detection and 3,3′,5,5′-tetramethylbenzidine (TMB, Fitzgerald Industries) as a substrate. Urea concentration was determined colorimetrically using diacetylmonoxime with acid and heat (Stanbio Labs). To quantify CYP450 activity, at 48 hours after small molecule exposure, cultures were incubated with substrates (coumarin from Sigma for CYP2A6, luciferin-IPA from Promega for CYP3A4) for 4 hours at 37° C. Incubation medium was collected and metabolite concentration quantified via luminescence, or fluorescence after hydrolization of potential metabolite conjugates by β-glucuronidase/arylsulfatase (Roche, Ind.).
The ability of compounds of the invention to affect the differentiation and maturation of iHeps was tested. Undifferentiated iPS cells were cultured on Matrigel, supported by primary mouse embryonic fibroblasts. […]
To confirm the staining results, secreted levels of albumin and AFP via ELISA, and CYP450 activities through isoenzyme-specific probes that are either fluorescent or luminescent were measured. […]

iHeps [2] = experiment: Gene expression profiles of treated iHeps (Luminex); type: cell-based, human
Protocol: Cells were lysed using RLT buffer (Qiagen) or Trizol (Invitrogen) and purified using the Mini-RNeasy kit (Qiagen). Gene expression was determined using Luminex analysis, as previously described. Briefly, total RNA was immobilized on a Qiagen turbo capture 384-well plate, and reverse-transcribed using oligodT priming A biotinylated FlexMap tag sequence unique to each gene of interest and a phosphorylated downstream probe were then added to resulting cDNAs to generate biotinylated FlexMap-tagged amplicons. Universal PCR was then performed for 35 cycles using a biotinylated T7 forward primer and T3 reverse primer in buffer with dNTPs and Taq polymerase. FlexMap microsphere beads conjugated with antitag oligonucleotides were then added and allowed to hybridize. Amplicons were captured by streptavidin-phyoerythrin, and 100 events per bead were analyzed for internal bead color and phyoerythrin reporter fluorescence on a Luminex FlexMap 3D analyzer. Data for replicate loadings, expressed in mean fluorescent intensity of at least 100 beads per sample, were scaled to the human transferrin gene and row-normalized for heat map representation using GeneE open software (Broad Institute).
(§1) The ability of compounds of the invention to affect the differentiation and maturation of iHeps was tested. Undifferentiated iPS cells were cultured on Matrigel, supported by primary mouse embryonic fibroblasts. Once confluent, iPS cells were transitioned to differentiation media, with sequential addition of growth factors (Activin A, BMP-4, bFGF, HGF, and OSM) to guide differentiation, first into endoderm, then into hepatic progenitor cells and finally into iHeps. Compound treatment started on day 21 post initiation of differentiation and acted over a period of 9 days. FH1 and FPH2 were used to treat iHeps. FH1 doubled albumin secretion during primary screening (FIG. 4A left) in a dose-responsive manner (FIG. 4A right).
Euclidian clustering analyses groups untreated cells with fetal hepatocytes and treated cells with mature hepatocytes (FIG. 4C left). Of particular interest are ABC transporters, CYP3A4 and GSTP1 expression levels. ABC transporters are known to mature after birth. ABCB11, also known as bile-salt export pump (BSEP), increased ˜3 fold and ˜4 fold in expression levels with FPH2 and FH1 treatment, respectively, compared to untreated iHeps. In contrast, GSTP1 expression, whose levels decrease with maturity, remained low upon FPH2 and FH1 treatment compared to untreated iHeps (FIG. 4C right).

[3] = tested on: iPS-derived endothelial cells; experiment: Differentiation of iPS-derived endothelial cells (nitric oxide); type: cell-based
Protocol: Cells were assayed for nitric oxide (NO), a mature marker for endothelial cells. CB=FPH2, M=FH1, E=PH1, while Null and DMSO are control runs with no additive and vehicle only, respectively.

[4] = tested on: lfabp:GFP zebrafish embryos; experiment: Therapeutic window after a non-fatal dose of APAP in zebrafish embryos (liver size); type: in vivo; conditions: 5 mM APAP for 24 hrs before 24 hour treatment
Protocol: The current clinical treatment for APAP toxicity is the administration of NAC, which has a limited window of efficacy. To examine the therapeutic window of FH1 and PH1 efficacy, lfabp:GFP zebrafish embryos were allowed to develop normally for 48 hrs post fertilization, and then exposed to a non-fatal dose of 5 mM APAP for 24 hrs before initiation of treatment with FH1 or PH1 for an additional 24 hour period (FIG. 10A).

iHeps [5] = experiment: Differentiation of human iPS-derived hepatocytes (iHeps): morphology and immunofluorescent staining; type: cell-based
Protocol: as §1
To examine the effects of FH1 and FPH2 at the protein level, AFP, albumin and CYP3A4 levels weew visualized via immunofluorescent staining. […] This is in agreement with primary screening results as well as earlier morphological findings. Untreated cultures had islands that double stain for albumin and the fetal marker AFP, with very little presence of the mature marker CYP3A4.

[6] = tested on: transgenic lfabp:GFP zebrafish; experiment: Liver development in transgenic lfabp:GFP zebrafish embryos; type: in vivo; conditions: exposure 24 to 72 hrs post fertilization
From the text: The effects of FH1 and PH1 on liver development were examined in transgenic lfabp:GFP zebrafish, in which GFP expression is restricted to the liver. Zebrafish embryos were allowed to develop normally for 24 hrs post fertilization and then exposed to either FH1 or PH1 until 72 hrs post fertilization (FIG. 8A). Livers were visualized by whole-mount fluorescence imaging (FIG. 8B) and lfabp in situ hybridization (FIG. 8C).

[7] = tested on: lfabp:GFP zebrafish embryos; experiment: Survival of zebrafish embryos after a fatal dose of APAP; type: in vivo; conditions: 10 mM APAP concurrently with compound, from 72 hrs post fertilization
Protocol: The effect of FH1 on zebrafish survival following APAP-induced toxicity was examined. lfabp:GFP zebrafish embryos were allowed to develop normally for 72 hrs post fertilization and then exposed to a fatal dose of 10 mM APAP concurrently with FH1 (FIG. 9A).

[8] = tested on: human primary hepatocytes; experiment: High-throughput liver platform, primary screening: secreted albumin by competitive ELISA; type: cell-based
From the text: In order to evaluate the phenotype of treated cells, a secondary readout was included to quantify hepatocyte functions via competitive ELISA. This biochemical assay measured the level of secreted albumin as a marker for protein synthesis functions of the cultured hepatocytes (FIG. 1A bottom).
FIG. 1B top summarizes the workflow of the screen. Primary screening was done on human primary hepatocytes, preconditioned for seven days by non-parenchymal cells in the screening platform. Upon stabilization in vitro, cultures were treated with the chemical library for 48 hours. All compounds were tested in duplicates, at a single concentration of 15 μM. This single concentration was selected via a pilot screen of ˜2,000 small molecules. All 12,480 small molecules were initially tested on a single donor of cryopreserved hepatocytes (donor a) in order to eliminate noise from donor-to-donor variability. Following compound treatment, media supernatants were collected for functional analyses via ELISA and cultures were fixed in 4% paraformaldehyde for proliferation analyses via imaging.

[9] = tested on: lfabp:GFP zebrafish embryos; conditions: clinical treatment for APAP toxicity; cited from earlier work

**Q.** For `CC(=O)Nc1ccc(Cc2ccc(NC(C)=O)cc2)cc1` [FH1, N,N′-(methylenebis(4,1-phenylene))diacetamide], which CYP3A4 activity increase (iHeps [1]) is on record?
**A.** 16 times

**Q.** And the “ABCB11 (BSEP) expression level increase compared to untreated iHeps” value (iHeps [2])?
**A.** ~4 fold

**Q.** What about the “GSTP1 expression compared to untreated iHeps” value (iHeps [2]) of the same compound?
**A.** remained low

**Q.** What about the “differentiation of iPS-derived endothelial cells (nitric oxide)” value [3] of the same compound?
**A.** induce differentiation

**Q.** What about the “embryonic liver size / liver mass after APAP compared to controls” value [4] of the same compound?
**A.** mitigated APAP-induced loss of liver mass

**Q.** What about the “staining of treated islands for albumin, CYP3A4 and AFP” value (iHeps [5]; immunofluorescent staining) of the same compound?
**A.** double stained strongly for albumin and CYP3A4, with very minimal presence of AFP

**Q.** What about the “albumin staining (immunofluorescent)” value (iHeps [5]; treated iHeps) of the same compound?
**A.** dramatic increases

**Q.** What about the “hepatocyte phenotype of treated iHeps” value (iHeps [5]; treatment from day 21, 9 days) of the same compound?
**A.** more mature hepatocyte phenotypes

**Q.** And the “liver size compared to DMSO-treated controls” value [6]?
**A.** increased

**Q.** And the survival of embryos [7]?
**A.** 71%

**Q.** What about the “albumin secretion during primary screening” value [8] of the same compound?
**A.** doubled

**Q.** For `CC(=O)N[C@@H](CS)C(=O)O` [NAC], which typical therapeutic window [9] is on record?
**A.** ~8 h
